Source: US8859615B2, “Compounds, compositions and methods for reducing toxicity and treating or preventing diseases” (priority 2008, dated 2014)
Read-outs that look alike come from different tables or passages of the source.

Experiments:
[1] = system: CCRF-CEM human T-cell acute lymphoblastic leukemia cells; assay: In vitro cytotoxicity against CCRF-CEM (XTT / CCK-8 tetrazolium assay, 72 hr); conditions: for IC50: Homo sapiens, CCRF-CEM
Method: (§1) The cytotoxicity IC50 of each compound was measured with the XTT assay using the 2,3-bis(2-methoxy-4-nitro-5-sulfophenyl)-5-[(phenylamino)carbonyl]-2H-tetrazolium hydroxide (XTT) microculture method as described in Scudiero et al., Cancer Res., 48:4827 (1988), the contents of which are hereby incorporated by reference in their entirety. The CCK-8 assay is a cell counting kit-8 (CCK-8) tetrazolium assay using a 96-well microplate (Dojindo Molecular Technologies, Inc., Rockville, Md.) (M. Ishiyama et al., Biol. Pharm. Bull. 19: 1518, 1996). Absorbance was measured by Powerwave a XS microplate spectrophotometer. This method described is considered a general method in vitro cytotoxicity studies.
(§2) The data in Tables 2X, 3A-E, 4, 5, and 6 were obtained using the cell counting kit-8 (CCK-8) tetrazolium assay in a 96-well microplate. Five to seven concentrations of each compound in triplicate were used, and the IC50 values were determined by CompuSyn software automation (Chou T C. and Martin N. ComboSyn, Inc., 2006) based on the median-effect equation and plot (Chou T C. J. Theor. Biol. 59:235-276, 1976; Chou T C. Pharmacol. Rev. 58: 621-681, 2006). […] The r value defines the correlation coefficient of the median-effect plot which signifies the conformity to the mass-action law principle (Chou T C. J. Theor. Biol. 59:235-276, 1976; Chou T C. Pharmacol. Rev. 58:621-681, 2006). These parameters were determined by CompuSyn simulation (available at http://www.combosyn.com).
(§3) CCRF-CEM human T-cell acute lymphoblastic leukemia cells and the corresponding vinblastine-resistant cells (CCRF-CEM/VBL100) were cultured at an initial density of 5×10^4 cells per milliliter. The cultured cells were maintained in a 5% CO2-humidified atmosphere at 37° C. in RPMI medium 1640 (GIBCO/BRL) containing penicillin (100 units/mL), streptomycin (100 μg/mL, GIBCO/BRL), and 10% heat-inactivated fetal bovine serum. The cytotoxicity of each Compound of the invention was measured using the 2,3-bis(2-methoxy-4-nitro-5-sulfophenyl)-5-[(phenylamino)carbonyl]-2H-tetrazolium hydroxide (XTT) microculture method as described in Scudiero et al., Cancer Res., 48:4827 (1988), the contents of which are hereby incorporated by reference in their entirety.
(§4) Absorbance was measured by Powerwave XS microplate spectrophotometer.

[2] = system: CCRF-CEM/VBL100 vinblastine-resistant cells; assay: In vitro cytotoxicity against vinblastine-resistant CCRF-CEM subline; type: cell-based, human; conditions: for IC50: Homo sapiens, CCRF-CEM
Method: as §1, §2, §3, §4

[3] = system: CCRF-CEM subline resistant to TAXOL; assay: In vitro cytotoxicity against TAXOL-resistant CCRF-CEM subline; type: cell-based, human; conditions: for IC50: Homo sapiens, CCRF-CEM
Method: as §2, §4

[4] = system: human lymphoblastic leukemic T-cell growth; assay: Cytotoxic activity relative to stability during storage at −20° C. in DMSO (Table 10); type: cell-based; conditions: Homo sapiens, CCRF-CEM, 72 h, Table 10, XTT, 72 hr
Text: Without wishing to be bound by theory, the oxidized versions may be active metabolites. This theory provides an explanation of the delayed onset of therapeutic effects seen in the figures herein. The oxidized compounds may be active agents that are formed slowly upon metabolic oxidation. […] The active metabolites may explain the biphasic pharmacological properties of panaxytriol or Compound D that have been observed (FIGS. 9B, C, D; FIGS. 11D, E, F, and FIGS. 12D, E). […] Induction of the phase 2 enzymes may slow oxidation of the compounds (Ng et al., Tetrahedron Letters. 49: 7178-7179 (2008)).

[5] = 72 h, read-out: IC50 CCRF-CEM, Table 3D, CCK-8, 72-hr incubation
[6] = read-out: IC50 (in μM), cytotoxic potency against cancer cell line growth in vitro, Table 3C, cell line not given
[7] = 72 h, Table 3D, CCK-8, 72-hr incubation, read-out: IC50 CCRF-CEM/Vinblastine
[8] = Table 3D, CCK-8, 72-hr incubation, read-out: IC50 CCRF-CEM/TAXOL
[9] = read-out: IC50 CCRF-CEM, Table 3E
[10] = Table 3E, read-out: IC50 CCRF-CEM/Vinblastine
[11] = Table 3E, read-out: IC50 CCRF-CEM/TAXOL

SMILES | IC50 [1, 5] [µM] | IC50 [1, 6] [µM] | IC50 [2, 7] [µM] | IC50 [3, 8] [µM] | IC50 [1, 9] [µM] | IC50 [2, 10] [µM] | IC50 [3, 11] [µM] | also measured
CC[C@]1(O)C[C@@H]2CN(CCc3c([nH]c4ccccc34)[C@@](C(=O)OC)(c3cc4c(cc3OC)N(C)[C@H]3[C@@](O)(C(=O)OC)[C@H](OC(C)=O)[C@]5(CC)C=CCN6CC[C@]43[C@@H]65)C2)C1 [Vinblastine] | – | – | – | – | – | – | – | IC50 ([1]; 72 h, read-out: CCRF-CEM (IC50 in μM), Table 3A-2, CCK-8, 72-hr exposure): 0.0011 µM; IC50 ([2]; 72 h, Table 3A-2, CCK-8, 72-hr exposure, read-out: CCRF-CEM/VBL (IC50 in μM)): 0.669 µM; Fold of resistance (IC50 ratio CCRF-CEM/VBL vs CCRF-CEM) ([2]; Table 3A-2): 608 fold; IC50 ([3]; Table 3A-2, CCK-8, 72-hr exposure, read-out: CCRF-CEM/TAXOL (IC50 in μM)): 0.282 µM; Fold of resistance (IC50 ratio CCRF-CEM/TAXOL vs CCRF-CEM) ([3]; Table 3A-2): 256 fold
C=C[C@H](C#CC#CC[C@H]1OC(C)(C)O[C@@H]1CCCCCCC)OC(C)=O [Compound (F)] | 3.88 ± 0.85 | 3.88 | 8.56 | 7.58 | – | – | – | –
C=CC(=O)C#CC#CC[C@H]1OC(C)(C)O[C@@H]1CCCCCCC [Compound (C)] | – | – | – | – | – | – | – | fold resistance in brackets (IC50 CCRF-CEM/VBL vs CCRF-CEM) ([2]; Table 3): 1.19 x; IC50 ([4]; Aug. 22, 2003 (Stored), same solution kept at −20° C. in DMSO, read-out: IC50 in μM CCRF-CEM): 2.68 µM; IC50 ([4]; Aug. 22, 2003 (Stored), same solution kept at −20° C. in DMSO, read-out: IC50 in μM CCRF-CEM/VBL): 3.9 µM; IC50 ([4]; Jul. 25, 2003 (Fresh), read-out: IC50 in μM CCRF-CEM): 0.404 µM; IC50 ([4]; Jul. 25, 2003 (Fresh), read-out: IC50 in μM CCRF-CEM/VBL): 0.7 µM
C=C[C@H](C#CC#CC[C@H]1OC(C)(C)O[C@@H]1CCCCCCC)OC [Compound (H)] | 21.6 | 21.6 | 26.6 | 15.1 | – | – | – | –
CCCCCCC[C@H]1OC(C)(C)O[C@@H]1CC#CC#C/C=C/CO [Compound (L)] | 1.92 ± 0.16 | 1.92 | 2.76 | 2.91 | – | – | – | –
CCCCCCC[C@H]1OC(C)(C)O[C@@H]1Cc1ccc(C=O)cc1 [Compound (N), 4-(((4R,5R)-5-heptyl-2,2-dimethyl-1,3-dioxolan-4-yl)methyl)benzaldehyde] | – | – | – | – | 12.6 | 13.6 | 19.4 | –
C=C[C@H](C#CC#CC[C@H]1OC(C)(C)O[C@@H]1CCCCCCC)OC(=O)/C=C/c1ccccc1 [Compound (E)] | 642 | 642 | 106 | 156 | – | – | – | anti-cancer activity in the in vitro cytotoxicity assay [1]: active against cancer; fold of cross-resistance (CCRF-CEM/Vinblastine vs parent cell line) ([2]; Table 3D, given as x or -fold): 0.17 fold; fold of cross-resistance (CCRF-CEM/TAXOL vs parent cell line) ([3]; Table 3D, given as x or -fold): 0.24 fold
C=CC(C)(O)C#CC#CC[C@H]1OC(C)(C)O[C@@H]1CCCCCCC (stereo partly drawn) [Compound (G)] | 3.77 ± 0.48 | 3.77 | 7.3 | 6.16 | – | – | – | –
C=CC(O)c1ccc(C[C@H]2OC(C)(C)O[C@@H]2CCCCCCC)cc1 (stereo partly drawn) [Compound (O), 1-(4-(((4R,5R)-5-heptyl-2,2-dimethyl-1,3-dioxolan-4-yl)methyl)phenyl)prop-2-en-1-ol] | – | – | – | – | 5.25 | 6.52 | 10.3 | –
CCCCCCC[C@H]1OC(C)(C)O[C@@H]1Cc1ccc(C(O)CC)cc1 (stereo partly drawn) [Compound (P), 1-(4-(((4R,5R)-5-heptyl-2,2-dimethyl-1,3-dioxolan-4-yl)methyl)phenyl)propan-1-ol] | – | – | – | – | 4.18 | 5.14 | 11.9 | –
